What all share (type): cell-based
Test [1] has as its system Staphylococcus aureus 209p. The test is described as follows: MIC, plate method, standard strains. The note with it: Table 3, standard strain, Heart infusion agar pH 7.4; unit assumed. Here is the method: (§1) The minimum inhibitory concentration (MIC) was determined by the plate method disclosed in "Chemotherapy" (Japan), Vol. 16, (1968), pages 98-99. The culture medium used was a Heart infusion agar (pH 7.4). The number of the cells per plate used in the inoculum was 10^4 (10^6 cells/ml).

In the next test the test system is Escherichia coli NIHJ. Nature of the test: MIC, plate method, standard strains. Particulars: unit assumed; for MIC Esche--richin coil NIHJ: Table 3, standard strain. The protocol: as §1
For a further test, the system named is Proteus vulgaris 3027. Nature of the test: MIC, plate method, standard strains. The note with it: unit assumed. Here is the method:
as §1

The subject of test [2] is Klebsiella pneumoniae. Nature of the test: MIC, plate method, standard strains. The note with it: unit assumed. Here is the method:
as §1

The next test deals with Pseudomonas aeruginosa. The test is described as follows: MIC against clinical isolates. Particulars: unit assumed.
A further test concerns Escherichia coli. Nature of the test: MIC against clinical isolates. The note with it: Table 6-2, clinical isolate; unit assumed.
Test [3] concerns Klebsiella pneumoniae. The test is described as follows: MIC against clinical isolates. Particulars: Table 6-4, clinical isolate; unit assumed.

The source of these data is US4327097A, “Novel penicillins” (Toyama Chemical Co., Ltd., priority 1974, dated 1982).

≈ marks a conversion by molar mass, not a printed value.

In turn, `CC1(C)SC2C(NC(=O)C(NC(=O)N3CCN(C4CCCC4)C(=O)C3)c3ccccc3)C(=O)N2C1C(=O)O` (single isomer, unassigned) [Compound 32] had an MIC Staphylococcus aureus 209p in test [1] of less than 1.57 µg/mL. The compound further returned an MIC Esche--richin coil NIHJ against Escherichia coli NIHJ of less than 1.57 µg/mL.

`CC(=O)OCC1=C(C(=O)O)N2C(=O)[C@@H](NC(=O)[C@H](N)c3ccccc3)[C@H]2SC1` [drawing 247, reference compound]: the MIC Proteus vulgaris 3027 in the test with Proteus vulgaris 3027 (Table 4, standard strain) came out at 100 µg/mL (≈ 247 µM). In the test with Klebsiella pneumoniae [2] (Table 4, standard strain), this compound registered an MIC Klebsiella pneumoniae of less than 1.57 µg/mL.

Regarding `CCCCCCCCN1CCN(C(=O)NC(C(=O)NC2C(=O)N3C2SC(C)(C)C3C(=O)OCOC)c2ccccc2)C(=O)C1=O` (single isomer, unassigned) [compound 51], the MIC Proteus vulgaris 3027 with Proteus vulgaris 3027 (Table 3, standard strain) was less than 0.4 µg/mL. The compound also registered an MIC Klebsiella pneumoniae in the test on Klebsiella pneumoniae [2] (Table 3, standard strain) of less than 0.4 µg/mL. In addition, the MIC Staphylococcus aureus 209p in test [1] was less than 0.4 µg/mL. Moreover, the MIC Esche--richin coil NIHJ in the test with Escherichia coli NIHJ was less than 0.4 µg/mL.

As for `CN1CCN(C(=O)NC(C(=O)NC2C(=O)N3C2SC(C)(C)C3C(=O)OCCN2CCCCC2)c2ccccc2)C(=O)C1=O` (single isomer, unassigned) [compound 53], the MIC Esche--richin coil NIHJ against Escherichia coli NIHJ was less than 0.4 µg/mL.

Regarding `CN1CCN(C(=O)NC(C(=O)NC2C(=O)N3C2SC(C)(C)C3C(=O)O)c2ccc(O)cc2)C(=O)C1=O` (single isomer, unassigned) [compound 48], the MIC Proteus vulgaris 3027 in the test with Proteus vulgaris 3027 (Table 3, standard strain) was less than 0.4 µg/mL. The compound further returned an MIC Staphylococcus aureus 209p in test [1] of less than 0.4 µg/mL. For the same compound, in the test with Escherichia coli NIHJ, the MIC Esche--richin coil NIHJ is less than 0.4 µg/mL.

In test [1], `CN1CCN(C(=O)NC(C(=O)N[C@@H]2C(=O)N3[C@@H]2SC(C)(C)[C@@H]3C(=O)O)c2cccs2)C(=O)C1=O` (some centres unmarked) [compound 58] came in with an MIC Staphylococcus aureus 209p of less than 1.57 µg/mL. Moreover, the MIC Esche--richin coil NIHJ against Escherichia coli NIHJ was less than 1.57 µg/mL.

In the test on Pseudomonas aeruginosa (Table 6-3, clinical isolate), `CC(=O)OCC1=C(C(=O)O)N2C(=O)C(NC(=O)C(NC(=O)N3CCN(C)C(=O)C3=O)c3ccccc3)C2SC1` (single isomer, unassigned) [Compound No. 60] displayed an MIC Pseudomonas aeruginosa GN4 of 50 µg/mL (≈ 89.4 µM), an MIC Pseudomonas aeruginosa GN 82 of 50 µg/mL (≈ 89.4 µM), an MIC Pseudomonas aeruginosa GN 376 of 50 µg/mL (≈ 89.4 µM) and an MIC Pseudomonas aeruginosa GN 2987 of 50 µg/mL (≈ 89.4 µM).

The compound `CC(=O)N1CCN(C(=O)N[C@@H](C(=O)N[C@@H]2C(=O)N3[C@@H]2SC(C)(C)[C@@H]3C(=O)O)c2ccccc2)C(=O)C1` [drawing 188] displayed an MIC Proteus vulgaris 3027 with Proteus vulgaris 3027 (Table 3, standard strain) of 3.13 µg/mL (≈ 6.05 µM). In the test on Klebsiella pneumoniae [2] (Table 3, standard strain), this compound displayed an MIC Klebsiella pneumoniae of 12.5 µg/mL (≈ 24.2 µM).

In test [1], `CC1(C)S[C@@H]2[C@H](NC(=O)[C@H](N)c3ccccc3)C(=O)N2[C@H]1C(=O)O` [drawing 185, reference compound] yielded an MIC Staphylococcus aureus 209p of less than 1.57 µg/mL. The same compound had an MIC Esche--richin coil NIHJ in the test with Escherichia coli NIHJ of less than 1.57 µg/mL.

For the compound `CN1CCN(C(=O)N[C@@H](C(=O)N[C@@H]2C(=O)N3[C@@H]2SC(C)(C)[C@@H]3C(=O)OC2OC(=O)c3ccccc32)c2ccccc2)C(=O)C1=O` (single isomer, unassigned) [compound 49], the MIC Staphylococcus aureus 209p in test [1] is less than 0.4 µg/mL.

Consider `Cc1nnc(SCC2=C(C(=O)O)N3C(=O)[C@@H](NC(=O)Cn4cnnn4)[C@H]3SC2)s1` [Sodium Cephazolin, reference compound], for which the MIC Pseudomonas aeruginosa GN4 in the test with Pseudomonas aeruginosa (Table 6-3, clinical isolate) is more than 200 µg/mL. The compound also had an MIC Pseudomonas aeruginosa S-4 against Pseudomonas aeruginosa (Table 6-4, clinical isolate) of more than 200 µg/mL. In the test with Escherichia coli, this compound showed an MIC Escherichia coli GN 3435 of 1.56 µg/mL, an MIC Escherichia coli GN 3452 of 1.56 µg/mL, an MIC Escherichia coli GN 3481 of 1.56 µg/mL and an MIC Escherichia coli K-1 of 1.56 µg/mL. Moreover, in the test on Escherichia coli, the MIC Escherichia coli K-2 came out at 1.56 µg/mL and the MIC Escherichia coli K-4 amounted to 3.13 µg/mL. Moreover, in the test on Klebsiella pneumoniae [3], the MIC Klebsiella pneumoniae GN 917 worked out at 1.56 µg/mL, the MIC Klebsiella pneumoniae GN 4081 turned out to be 3.13 µg/mL and the MIC Klebsiella pneumoniae GN 4117 amounted to 3.13 µg/mL.

Regarding `Cc1nnc(SCC2=C(C(=O)O)N3C(=O)[C@@H](NC(=O)Cn4cnnn4)[C@H]3SC2)s1` [drawing 249, reference compound], the MIC Proteus vulgaris 3027 against Proteus vulgaris 3027 (Table 4, standard strain) stood at 200 µg/mL (≈ 440 µM). Moreover, the MIC Klebsiella pneumoniae with Klebsiella pneumoniae [2] (Table 4, standard strain) worked out at 1.57 µg/mL (≈ 3.45 µM).

With `CC1(C)S[C@@H]2[C@H](NC(=O)C(c3ccccc3)S(=O)(=O)O)C(=O)N2[C@H]1C(=O)O` (some centres unmarked) [drawing 187, reference compound], the MIC Esche--richin coil NIHJ in the test with Escherichia coli NIHJ worked out at 1.57 µg/mL (≈ 3.79 µM).

`CN1CCN(C(=O)N[C@@H](C(=O)N[C@@H]2C(=O)N3C(C(=O)[O-])=C(C[n+]4ccccc4)CS[C@H]23)c2ccccc2)C(=O)C1=O` [Compound No. 68] showed an MIC Klebsiella pneumoniae with Klebsiella pneumoniae [2] (Table 4, standard strain) of less than 0.79 µg/mL. Moreover, the MIC Escherichia coli NIHJ against Escherichia coli NIHJ (Table 4, standard strain) was less than 0.79 µg/mL. In the test on Pseudomonas aeruginosa (Table 6-3, clinical isolate), this compound displayed an MIC Pseudomonas aeruginosa GN4 of 12.5 µg/mL (≈ 21.6 µM), an MIC Pseudomonas aeruginosa GN 1035 of 50 µg/mL (≈ 86.4 µM) and an MIC Pseudomonas aeruginosa GN 2565 of 50 µg/mL (≈ 86.4 µM).

For the compound `COCOC(=O)C1N2C(=O)C(NC(=O)C(NC(=O)N3CCN(C)C(=O)C3=O)c3ccccc3)C2SC1(C)C` (single isomer, unassigned) [compound 50], the MIC Proteus vulgaris 3027 in the test with Proteus vulgaris 3027 (Table 3, standard strain) is less than 0.79 µg/mL. The MIC Staphylococcus aureus 209p in test [1] was less than 0.79 µg/mL. In addition, the MIC Esche--richin coil NIHJ with Escherichia coli NIHJ was less than 0.79 µg/mL.

As for `CCN1CCN(C(=O)NC(C(=O)NC2C(=O)N3C(C(=O)O)=C(COC(C)=O)CSC23)c2ccccc2)C(=O)C1=O` (centres unmarked) [Compound No. 61], in the test on Pseudomonas aeruginosa (Table 6-3, clinical isolate, strain number not given), the MIC Pseudomonas aeruginosa GN is 25 µg/mL (≈ 43.6 µM). Further, the MIC Pseudomonas aeruginosa GN4 in the test with Pseudomonas aeruginosa (Table 6-3, clinical isolate) was 12.5 µg/mL (≈ 21.8 µM).

In turn, `CC1(C)SC2C(NC(=O)C(NC(=O)N3CCN(c4ccccc4)C(=O)C3=O)c3ccccc3)C(=O)N2C1C(=O)O` (single isomer, unassigned) [Compound 43] displayed an MIC Proteus vulgaris 3027 in the test with Proteus vulgaris 3027 (Table 3, standard strain) of less than 1.57 µg/mL. The compound also gave an MIC Staphylococcus aureus 209p in test [1] of less than 1.57 µg/mL. In the test with Escherichia coli NIHJ, this compound showed an MIC Esche--richin coil NIHJ of less than 1.57 µg/mL.

Consider `CC(=O)OCCN1CCN(C(=O)NC(C(=O)NC2C(=O)N3C2SC(C)(C)C3C(=O)O)c2ccccc2)C(=O)C1=O` (single isomer, unassigned) [Compound 41], for which the MIC Proteus vulgaris 3027 against Proteus vulgaris 3027 (Table 3, standard strain) is less than 1.57 µg/mL. Further, the MIC Staphylococcus aureus 209p in test [1] is less than 1.57 µg/mL. Also, the MIC Esche--richin coil NIHJ in the test on Escherichia coli NIHJ was less than 1.57 µg/mL.

`C=CCN1CCN(C(=O)NC(C(=O)NC2C(=O)N3C2SC(C)(C)C3C(=O)O)c2ccccc2)C(=O)C1=O` (single isomer, unassigned) [Compound 42]: the MIC Proteus vulgaris 3027 with Proteus vulgaris 3027 (Table 3, standard strain) was less than 1.57 µg/mL. In the test with Escherichia coli NIHJ, the MIC Esche--richin coil NIHJ was less than 1.57 µg/mL.

In the test on Pseudomonas aeruginosa (Table 6-3, clinical isolate), `Cc1nnc(SCC2=C(C(=O)O)N3C(=O)C(NC(=O)C(NC(=O)N4CCN(C)C(=O)C4=O)c4ccccc4)C3SC2)s1` (single isomer, unassigned) [Compound No. 62] gave an MIC Pseudomonas aeruginosa GN4 of 100 µg/mL (≈ 158 µM), an MIC Pseudomonas aeruginosa GN 82 of 100 µg/mL (≈ 158 µM), an MIC Pseudomonas aeruginosa GN 376 of 100 µg/mL (≈ 158 µM) and an MIC Pseudomonas aeruginosa GN 2565 of 100 µg/mL (≈ 158 µM).
